How the values were obtained:
Settings in all cases: incubation time: 72 h
[1] = tested on: BT-474; assay: normalised response (% of control), CellTiter-Glo; higher = more viable cells (100 = DMSO, 0 = benzethonium chloride kill control)
Outline: (§1)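 In 384-well plates holding compound at 5 concentrations in 10-fold steps over a 10,000-fold range specific to each compound, breast cancer cell lines were seeded as 20 µl suspension and incubated 72 h. CellTox Green fluorescence was measured at 485/520 nm, after which CellTiter-Glo luminescence was measured following 10 min at room temperature. Plate signals were normalised to 0.1 % DMSO (100) and a positive kill control (0), and each value is the normalised signal at a single concentration.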

[2] = tested on: BT-549; assay: as above
Outline: as §1

[3] = tested on: CAL-120; assay: as above
Outline: as §1

[4] = tested on: CAL-148; assay: as above
Outline: as §1

[5] = tested on: CAL-51; assay: as above
Outline: as §1

[6] = tested on: CAL-85-1; assay: as above
Outline: as §1

[7] = tested on: DU-4475; assay: as above
Outline: as §1

[8] = tested on: HCC1143; assay: as above
Outline: as §1

[9] = tested on: HCC1599; assay: as above
Outline: as §1

[10] = tested on: HCC1937; assay: as above
Outline: as §1

[11] = tested on: HDQ-P1; assay: as above
Outline: as §1

[12] = tested on: Hs578T; assay: as above
Outline: as §1

[13] = tested on: MCF-10A; assay: as above
Outline: as §1

[14] = tested on: MDA-MB-231; assay: as above
Outline: as §1

[15] = tested on: MDA-MB-436; assay: as above
Outline: as §1

[16] = tested on: MDA-MB-453; assay: as above
Outline: as §1

[17] = tested on: MDA-MB-468; assay: as above
Outline: as §1

[18] = tested on: MFM-223; assay: as above
Outline: as §1

[19] = tested on: SK-BR-3; assay: as above
Outline: as §1

[20] = tested on: BT-474; assay: normalised viability (% of control), CellTiter-Blue; higher = more viable cells (100 = DMSO, 0 = benzethonium chloride kill control)
Method: (§2)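 DSRT, CellTiter-Blue viability, 72 h incubation. Signal is normalised to DMSO and benzethonium chloride controls. Value is the normalised response at dose 1.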

[21] = tested on: BT-549; assay: as above
Method: as §2

[22] = tested on: CAL-120; assay: as above
Method: as §2

[23] = tested on: CAL-148; assay: as above
Method: as §2

[24] = tested on: CAL-51; assay: as above
Method: as §2

[25] = tested on: CAL-85-1; assay: as above
Method: as §2

[26] = tested on: DU-4475; assay: as above
Method: as §2

[27] = tested on: HCC1143; assay: as above
Method: as §2

[28] = tested on: HCC1599; assay: as above
Method: as §2

[29] = tested on: HCC1937; assay: as above
Method: as §2

[30] = tested on: HDQ-P1; assay: as above
Method: as §2

[31] = tested on: Hs578T; assay: as above
Method: as §2

[32] = tested on: MDA-MB-231; assay: as above
Method: as §2

[33] = tested on: MDA-MB-436; assay: as above
Method: as §2

[34] = tested on: MDA-MB-453; assay: as above
Method: as §2

[35] = tested on: MDA-MB-468; assay: as above
Method: as §2

[36] = tested on: MFM-223; assay: as above
Method: as §2

[37] = tested on: SK-BR-3; assay: as above
Method: as §2

| SMILES | normalised response [1] | normalised response [2] | normalised response [3] | normalised response [4] | normalised response [5] | normalised response [6] | normalised response [7] | normalised response [8] | normalised response [9] | normalised response [10] | normalised response [11] | normalised response [12] | normalised response [13] | normalised response [14] | normalised response [15] | normalised response [16] | normalised response [17] | normalised response [18] | normalised response [19] | normalised viability [20] | normalised viability [21] | normalised viability [22] | normalised viability [23] | normalised viability [24] | normalised viability [25] | normalised viability [26] | normalised viability [27] | normalised viability [28] | normalised viability [29] | normalised viability [30] | normalised viability [31] | normalised viability [32] | normalised viability [33] | normalised viability [34] | normalised viability [35] | normalised viability [36] | normalised viability [37] |
| --- | --- | --- | --- | --- | --- | --- | --- | --- | --- | --- | --- | --- | --- | --- | --- | --- | --- | --- | --- | --- | --- | --- | --- | --- | --- | --- | --- | --- | --- | --- | --- | --- | --- | --- | --- | --- | --- |
| C=C1C[C@@H]2[C@H](CC[C@]3(C)C(=O)CC[C@@H]23)[C@@]2(C)C=CC(=O)C=C12 [Exemestane] (1 nM) | 97.6% | 91.6% | 101% | 98.6% | 88.6% | 97.2% | 106% | 102% | 112% | 93.6% | 101% | 106% | 112% | 105% | 134% | 108% | 101% | 108% | 107% | 81.5% | 114% | 86.5% | 89.2% | 95.2% | 88.2% | 90.9% | 85.9% | 84.5% | 102% | 100% | 112% | 93.5% | 95.2% | 99.2% | 117% | 88.7% | 91.5% |
| O=C(Nc1ccncc1)C(=O)c1cn(Cc2ccc(Cl)cc2)c2ccccc12 [Indibulin] (1 nM) | 103% | 104% | 99.1% | 109% | 59.7% | 106% | 109% | 97.2% | 113% | 100% | 106% | 100% | 101% | 102% | 103% | 113% | 103% | 107% | 110% | 104% | 100% | 92.1% | 111% | 106% | 98.9% | 121% | 95.7% | 109% | 95.8% | 77.9% | 111% | 119% | 161% | 103% | 102% | 97% | 102% |
| NC(=O)c1ccc(I)c([N+](=O)[O-])c1 [Iniparib] (1 nM) | 83.2% | 108% | 96.5% | 83.8% | 128% | 94.6% | 93.8% | 87.8% | 101% | 93.5% | 92.5% | 90.9% | 77.3% | 90.9% | 87.1% | 86.2% | 94.8% | 84.2% | 76.7% | 92.8% | 113% | 85.1% | 93.2% | 95% | 86% | 87.6% | 97.1% | 87.8% | 130% | 104% | 116% | 98.9% | 108% | 94.5% | 99.1% | 103% | 92.1% |
| Oc1ccc2c(c1)CC[C@H](c1ccccc1)[C@@H]2c1ccc(OCCN2CCCC2)cc1 [Lasofoxifene] (0.1 nM) | 106% | 97.1% | 107% | 109% | 86.3% | 95.4% | 102% | 104% | 104% | 100% | 104% | 99.6% | 109% | 106% | 99.2% | 115% | 106% | 103% | 113% | 107% | 114% | 83.3% | 115% | 104% | 83.1% | 93.1% | 76.4% | 92.2% | 80.3% | 87% | 96.6% | 90.2% | 102% | 95% | 99.4% | 89.1% | 97.1% |

Reference: the supplement of paper PMC4862054
